Data published in US20240041023A1, “COMPOSITION AND METHOD OF PRESERVING VIABILITY OF CELL IN A LOW TEMPERATURE” (THE UNITED STATES OF AMERICA, AS REPRESENTED BY THE …, priority 2020, published 2024).
Entries after “also recorded” stand apart in the source; their conditions may differ.

How the values were obtained:
[1] = tested on: mouse pancreatic islets; test: Cold survival of mouse pancreatic islets in preservation solutions; type: cell-based; details: N-EM added into UW solution, 2-D08 or ginkgolic acid added into HS solution
Protocol: (§1) N-EM and protease inhibitors are added into HS to make HS+.

[2] = tested on: FOXO1; test: FOXO1-dependent survival pathway and FOXO1 nuclear entry in cold stored mouse islets; type: cell-based; details: mouse pancreatic islets; inhibitor added to HS solution
Protocol: as §1

[3] = tested on: FOXO1; test: FOXO1 nuclear entry in corneal endothelial cells after anterior chamber injection (immunofluorescence); type: in vivo, rat; details: 6-month-old rats
[4] = tested on: rat corneal endothelial cells; test: Cold preservation of rat cornea: endothelial cell mortality (PI positive cells) and immunofluorescence staining; type: cell-based; details: 6-month-old rat cornea
Protocol: After injection of 0.5 μL C6 solution (10 μM/μL in goat serum solvent) into the anterior chamber of the eye through the limbal stroma. After 90 minutes, the cornea was taken and cold stored in a corneal preservation solution. After cold storage for 3 weeks and 4 weeks, the cold storage results were evaluated by immunofluorescence staining.
The corneal preservation solution of this example is the novel corneal preservation solution prepared in Example 3, with 20 μM C6 and the protease inhibitor mixture Pi (as described in WO2019/040359A1) added, and the final concentrations of the components in the protease inhibitor mixture Pi in the cold preservation solution are respectively: pepstatin 1 μM; leupeptin 2 μM; bestatin 5 μM; […] 0.5 μM; aprotinin 0.08 μM; AEBSF 100 μM.
0.5 μL of Apigenin solution (concentration 4 μM/μL, in goat serum solvent) was injected into the anterior chamber through the limbal stroma, and 20 minutes later, the cornea was removed and stored in the novel preservation solution prepared in Example 3 (with 4 μM Apigenin and Pi previously added). After cold storage for 3 weeks and 4 weeks, the cold storage results were evaluated by immunofluorescence staining.

[5] = tested on: mice pancreatic islets; test: Mouse pancreatic islets stored at 4° C. versus 1640 culture solution; type: cell-based; details: mice pancreatic islets stored at 4° C.; C6 and Apigenin added to the novel preservation solution (MM)
Protocol: In another example, mice pancreatic islets were extracted and stored at 4° C. in cold storage. The conventional 1640 culture solution which is commonly used is used as a control group.

[6] = tested on: human islets; test: Cold storage of human islets; type: cell-based; details: prolonged cold storage
[7] = after anterior chamber injection (C6 20 μM/μL, Apigenin 4 μM/μL, goat serum solvent), before cold stimulation
[8] = after anterior chamber injection and cold stimulation

| Compound | islet cold survival / islet cell death [1] | cold-induced FOXO1 nuclear entry [2] | FOXO1 nucleus entry in corneal endothelial cells [3, 7] | FOXO1 nucleus entry in corneal endothelial cells [3, 8] | corneal endothelial cell death, in words ([4]; cold preservation 3 weeks) | islet cell death [5] | other results |
| --- | --- | --- | --- | --- | --- | --- | --- |
| O=c1cc(-c2ccc(O)c(O)c2O)oc2ccccc12 [2-D08] | islet cell death became severe | repressed | – | – | – | – | – |
| O=c1cc(-c2ccc(O)cc2)oc2cc(O)cc(O)c12 [Apigenin] | – | – | did not cause FOXO1 to enter nucleus | activated FOXO1 to enter the nucleus | decreased mortality | further reduced the number of dead cells | FOXO1 nucleus entry in corneal endothelial cells ([3]; after cold stimulation and rewarming): weak nuclear entering effect is still maintained; corneal endothelial cell death, in words ([4]; cold storage 4 weeks): significantly reduced; corneal endothelium structure (hexagonal structure, F-actin, nuclei) ([4]; cold storage 4 weeks (28 days, 4° C.)): largely intact endothelium |
| CCCCCCCCCCCCC/C=C/[C@@H](O)[C@H](CO)NC(=O)CCCCC [C6, C6 ceramide] | – | – | activate FOXO1 nucleus entry | nucleus entry signal was enhanced | reduction in the number of dead corneal endothelial cells | further reduced the number of dead cells | – |
| CCN1C(=O)C=CC1=O [N-Ethylmaleimide] | enables longer term cold storage; also recorded: islet cold survival is improved | – | – | – | – | – | outcome of cold storage of human islets [6]: enables longer term cold storage |
| ginkgolic acid | islet cell death became severe | repressed | – | – | – | – | – |
